# Assay results taken from patent US6534524B1, “Indazole compounds and pharmaceutical compositions for inhibiting protein kinases, and methods for their use” (Agouron Pharmaceuticals, Inc., priority 1999, dated 2003).
# Where two headings read alike, the source gives them in different places.
# Experiments:
# human FGF-R1 = human FGF-R1 (Homo sapiens, UniProt P11362, C488A/C584S/L457V); test: FGF-R spectrophotometric assay
# [1] = biological target: unphosphorylated VEGF-R2Δ50 (FLVK) (Homo sapiens, UniProt P35968, DEL940-989/E990V); test: VEGF-R2 coupled spectrophotometric assay, unphosphorylated VEGF-R2Δ50 (FLVK); conditions: FLVK Ki, Table 1
# Chain of unphosphorylated VEGF-R2Δ50 (FLVK) (P35968 with tags, fused parts or gaps DEL940-989/E990V limits assumed): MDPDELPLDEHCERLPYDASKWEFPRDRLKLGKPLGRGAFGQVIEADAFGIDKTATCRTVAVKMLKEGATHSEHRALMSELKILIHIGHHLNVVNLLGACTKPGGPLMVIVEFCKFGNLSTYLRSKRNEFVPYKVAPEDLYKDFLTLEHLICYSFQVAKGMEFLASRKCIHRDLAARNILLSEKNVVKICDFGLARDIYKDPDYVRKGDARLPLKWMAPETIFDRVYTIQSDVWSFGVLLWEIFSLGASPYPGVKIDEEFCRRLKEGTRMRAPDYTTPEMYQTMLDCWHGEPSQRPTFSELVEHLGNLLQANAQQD
# CDK2/Cyclin A = CDK2/Cyclin A (Homo sapiens, UniProt P24941); test: CDK2/Cyclin A assay ([32P]ATP, Rb fragment); format: biochemical
# CDK4/Cyclin D3 complex = CDK4/Cyclin D3 complex (Homo sapiens, UniProt P11802); test: CDK4/Cyclin D assay ([32P]ATP, Rb fragment)
# Chain of CDK4/Cyclin D3 complex (P11802 whole entry, the tested form may be a part): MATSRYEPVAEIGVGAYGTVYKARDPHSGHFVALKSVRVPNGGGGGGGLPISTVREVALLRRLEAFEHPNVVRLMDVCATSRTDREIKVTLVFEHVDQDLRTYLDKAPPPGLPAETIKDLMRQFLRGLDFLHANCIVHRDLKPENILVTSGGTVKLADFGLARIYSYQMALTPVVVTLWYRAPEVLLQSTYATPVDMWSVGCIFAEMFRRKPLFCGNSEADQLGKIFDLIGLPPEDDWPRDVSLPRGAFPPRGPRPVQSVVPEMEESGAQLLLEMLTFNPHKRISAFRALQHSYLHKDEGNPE
# Chain of CDK4/Cyclin D3 complex (P30281 whole entry partner, the tested form may be a part): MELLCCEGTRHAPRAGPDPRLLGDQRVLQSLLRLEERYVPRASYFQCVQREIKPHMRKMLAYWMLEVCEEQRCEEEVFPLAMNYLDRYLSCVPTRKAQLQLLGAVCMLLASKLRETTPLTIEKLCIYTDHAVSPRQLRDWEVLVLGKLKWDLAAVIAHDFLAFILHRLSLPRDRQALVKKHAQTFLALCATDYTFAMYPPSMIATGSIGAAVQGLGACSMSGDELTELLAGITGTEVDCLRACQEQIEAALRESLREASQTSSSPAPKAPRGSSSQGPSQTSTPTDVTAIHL
# [2] = Determination of inhibitor concentration in mouse plasma after intraperitoneal and oral dosing; format: in vivo; conditions: PO, 25 mg/kg; for AUClast / Cmax / plasma half-life (T1/2): vehicle PEG400:H2O pH 2.3 30:70; for concentration at 7 h: female, vehicle PEG400:H2O pH 2.3 30:70, read-out: Cmin (7 hr conc.)
# Procedure, shortened: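 Mice dosed intraperitoneally or orally; blood taken by ocular bleed at 0.5, 1 and 4 h and by intracardiac puncture at 7 h. Plasma extracted with ethyl acetate after internal standard and NaOH addition, analysed by HPLC or LC-MS against a mouse-plasma standard curve.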
# [3] = Human liver microsome (HLM) assay; format: in vitro ADME; conditions: human liver microsomes, 5 μM test compound
# Procedure, shortened: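 Compound metabolism in human liver microsomes measured in triplicate. Samples at 0 and 2 h centrifuged at 14000 g for 10 min and analysed by LC-MS.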
# [4] = tested on: human umbilical vein endothelial cells (HUVEC); test: HUVEC proliferation assay (VEGF-stimulated, MTT); format: cell-based; conditions: Homo sapiens, HUVEC
# human CHK1 (FL-CHK1) = biological target: T1, human CHK1 (FL-CHK1) (Homo sapiens, UniProt O14757); test: CHK1 assay (coupled spectrophotometric, Syntide-2); format: biochemical; conditions: Table 1
# T1 construct: C-terminally His-tagged full-length human CHK1 (FL-CHK1); made in house; host or cells: baculovirus/insect cell system
# T1 sequence (O14757 1-476): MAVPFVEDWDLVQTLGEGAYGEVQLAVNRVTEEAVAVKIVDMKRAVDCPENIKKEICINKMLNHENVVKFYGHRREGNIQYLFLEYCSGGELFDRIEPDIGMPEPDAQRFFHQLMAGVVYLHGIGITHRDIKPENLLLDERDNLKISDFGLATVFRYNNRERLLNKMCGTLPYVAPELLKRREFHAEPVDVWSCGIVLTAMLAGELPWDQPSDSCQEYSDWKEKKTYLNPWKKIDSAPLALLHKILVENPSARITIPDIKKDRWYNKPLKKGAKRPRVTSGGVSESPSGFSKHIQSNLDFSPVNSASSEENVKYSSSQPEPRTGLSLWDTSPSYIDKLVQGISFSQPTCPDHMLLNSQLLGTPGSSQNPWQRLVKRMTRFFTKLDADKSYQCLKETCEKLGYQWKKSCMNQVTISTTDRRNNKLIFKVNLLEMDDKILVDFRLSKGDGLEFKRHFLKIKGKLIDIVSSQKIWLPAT
# Text: CHK1 Construct for Assay: C-terminally His-tagged full-length human CHK1 (FL-CHK1) was expressed using the baculovirus/insect cell system. […] The protein was purified by conventional chromatographic techniques.
# The production of ADP from ATP that accompanies phosphoryl transfer to the synthetic substrate peptide Syntide-2 ([…]) was coupled to oxidation of NADH using phosphoenolpyruvate (PEP) through the actions of pyruvate kinase (PK) and lactic dehydrogenase (LDH). The oxidation of NADH was monitored by following the decrease of absorbance at 340 nm (ε340=6.22 cm^−1 mM^−1) using a HP8452 spectrophotometer. […] Assays were initiated with 10 nM of FL-CHK1. Ki values were determined by measuring initial enzyme activity in the presence of varying concentrations of test compounds. The data were analyzed using Enzyme Kinetic and Kaleidagraph software.
# Chain of human FGF-R1 (P11362 456-766 L457V/C488A/C584S): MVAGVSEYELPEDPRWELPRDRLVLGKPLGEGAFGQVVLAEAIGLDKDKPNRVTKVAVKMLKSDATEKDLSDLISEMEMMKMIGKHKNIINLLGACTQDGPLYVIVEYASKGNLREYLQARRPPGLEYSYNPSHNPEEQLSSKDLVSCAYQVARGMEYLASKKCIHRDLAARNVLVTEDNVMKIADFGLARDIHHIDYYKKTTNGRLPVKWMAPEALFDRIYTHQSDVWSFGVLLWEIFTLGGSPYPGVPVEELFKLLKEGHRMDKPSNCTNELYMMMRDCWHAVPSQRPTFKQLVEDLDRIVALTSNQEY
structure (smiles),measurement,setting,value
"CN(c1cccc(N)c1)c1ccc2c(/C=C/c3ccccc3)n[nH]c2c1 [Example 11, N-Methyl-N-(3-styryl-1H-indazol-6-yl)-benzene-1,3-diamine]",Ki,human FGF-R1,34000 nM
same,Ki,[1],12 nM
"COc1cc(-c2ccc3c(-c4cc(OC)c(OC)c(OC)c4)n[nH]c3c2)ccc1O [Example 2(c), 3-(3,4,5-Trimethoxyphenyl)-6-(3-methoxy-4-hydroxy-phenyl)-1H-indazole]",Ki,"CDK2/Cyclin A; Table 1, μM",50 µM
same,Ki,[1],2600 nM
same,Ki,CDK4/Cyclin D3 complex,26000 nM
"COc1cc(O)ccc1-c1ccc2c(-c3nc4c(N5CCN(C)CC5)cccc4[nH]3)n[nH]c2c1 [Example 25(d), 3-[4-(4-Methylpiperazin-1-yl)-1H-benzoinidazol-2-yl]-6-(2-methoxy-4-hydroxyphenyl)-1H-indazole]",Ki,CDK2/Cyclin A; Table 2,0.16 µM
same,Ki,CDK4/Cyclin D3 complex,98 nM
"CC(=O)Nc1cc(C(=O)c2ccc3c(/C=C/c4ccccn4)n[nH]c3c2)ccc1C [Example 41(gg), 6-(3-Acetamido-4-methylbenzoyl)-3-E-[2-(pyridin-2-yl)ethenyl]-1H-indazole]",Ki,human FGF-R1,3.5 nM
same,AUClast,[2],2692 ng·h/mL
same,Cmax,[2],2079 ng/mL
same,plasma half-life (T1/2),[2],1.1 h
same,concentration at 7 h,[2],29 ng/mL
"COc1cc(-c2ccc3c(-c4nc5ccccc5[nH]4)n[nH]c3c2)c(CO)cc1O [Example 24(n), 3-1H-Benzoimidazol-2-yl-6-(2-(hydroxymethyl)-5-methoxy-4-hydroxy-phenyl)-1H-indazole]",Ki,CDK2/Cyclin A; Table 2,0.035 µM
same,Ki,CDK4/Cyclin D3 complex,19 nM
"COc1cc(O)ccc1-c1ccc2c(-c3nc4ccc(S(N)(=O)=O)cc4[nH]3)n[nH]c2c1 [Example 25(i), 3-(5-Aminosulfonyl-1H-benzoimidazol-2-yl)-6-(2-methoxy-4-hydroxy-phenyl)-1H-indazole]",Ki,CDK2/Cyclin A; Table 2,0.021 µM
same,Ki,CDK4/Cyclin D3 complex,20 nM
"Cc1cc(C(=O)Nc2cccc(C(=O)c3ccc4c(/C=C/c5ccccn5)n[nH]c4c3)c2)n(C(C)C)n1 [Example 41(x), 6-[3-((1-Isopropyl-3-methyl-1H-pyrazol-5-yl)carboxamido)benzoyl]-3-E-[2-(pyridin-2-yl)ethenyl]-1H-indazole]",Ki,human FGF-R1,3.4 nM
same,AUClast,[2],24174 ng·h/mL
same,Cmax,[2],4587 ng/mL
same,plasma half-life (T1/2),[2],4.2 h
same,concentration at 7 h,[2],1270 ng/mL
"COc1cc(O)ccc1-c1ccc2c(-c3nc4cnccc4[nH]3)n[nH]c2c1 [Example 25(a), 3-(3H-Iniidazo[4,5-c]pyridin-2-yl)-6-(4-hydroxy-2-methoxyphenyl)-1H-indazole]",Ki,CDK2/Cyclin A; Table 2,0.08 µM
same,Ki,CDK4/Cyclin D3 complex,21 nM
"Oc1ccc(-c2ccc3c(-c4nc5ccccc5[nH]4)n[nH]c3c2)c(O)c1 [Example 24(f), 3-1H-Benzoimidazol-2-yl-6-(2,4-dihydroxyphenyl)-1H-indazole]",Ki,CDK2/Cyclin A; Table 2,0.0072 µM
same,Ki,CDK4/Cyclin D3 complex,7.4 nM
"CNC(=O)c1ccc2[nH]c(-c3n[nH]c4cc(-c5ccc(O)cc5OC)ccc34)nc2c1 [Example 25(g), 3-(5-Methylcarbamoyl-1H-benzoimidazol-2-yl)-6-(2-methoxy-4-hydroxyphenyl)-1H-indazole]",Ki,CDK2/Cyclin A; Table 2,0.08 µM
same,Ki,CDK4/Cyclin D3 complex,21 nM
"COc1c(O)cccc1-c1ccc2c(-c3nc4ccccc4[nH]3)n[nH]c2c1 [Example 24(p), 3-1H-Benzoinidazol-2-yl-6-(2-methoxy-3-hydroxyphenyl)-1H-indazole]",Ki,CDK2/Cyclin A; Table 2,0.089 µM
same,Ki,CDK4/Cyclin D3 complex,92 nM
"Cc1cc(O)cc(C)c1-c1ccc2c(-c3nc4ccccc4[nH]3)n[nH]c2c1 [Example 24(j), 3-1H-Benzoimidazol-2-yl-6-(2,6-dimethyl-4-hydroxyphenyl)-1H-indazole]",Ki,CDK2/Cyclin A; Table 2,2.1 µM
same,Ki,CDK4/Cyclin D3 complex,320 nM
"CCn1nc(C)cc1C(=O)Nc1cc(Nc2ccc3c(/C=C/c4ccccn4)n[nH]c3c2)c(F)cc1C [Example 48(a), 6-[N-(5-((1-Ethyl-3-methyl-1H-pyrazol-5-yl)carboxanido)-2-fluoro-4-methylphenyl)amino]-3-E-[2-(pyridin-2-yl)ethenyl]-1H-indazole]","% remain (HLM, 2 h)",[3],55%
same,Ki,human FGF-R1,14 nM
same,Ki,[1],0.37 nM
same,IC50,"[4]; + albumin, read-out: HUVEC + albumin IC50",8.8 nM
"C=CCn1nc(C)cc1C(=O)Nc1cc(C(=O)c2ccc3c(/C=C/c4ccccn4)n[nH]c3c2)ccc1C [Example 41(ff), 6-[3-((1-Allyl-3-methyl-1H-pyrazol-5-yl)carboxamido)-4-methylbenzoyl]-3-E-[2-(pyridin-2-yl)ethenyl]-1H-indazole]","% remain (HLM, 2 h)",[3],68%
same,Ki,human FGF-R1,12 nM
same,AUClast,[2],9176 ng·h/mL
same,plasma half-life (T1/2),[2],2.0 h
same,concentration at 7 h,[2],410 ng/mL
"CNC(=O)c1cccc2[nH]c(-c3n[nH]c4cc(-c5ccc(O)cc5OC)ccc34)nc12 [Example 25(j), 3-(4-Methylcarbamoyl-1H-benzoinidazol-2-yl)-6-(2-methoxy-4-hydroxy-phenyl)-1H-indazole]",Ki,CDK2/Cyclin A; Table 2,0.079 µM
same,Ki,CDK4/Cyclin D3 complex,16 nM
"Fc1cccc(/C=C/c2n[nH]c3cc(-c4ccncc4)ccc23)c1F [29(l), 6-Pyrid-4-yl-3-E-[2-(2,3-difluorophenyl)ethenyl]-1H-indazole]",Ki,CDK2/Cyclin A; Table 3,3.1 µM
same,Ki,CDK4/Cyclin D3 complex,5000 nM
"Oc1ccc(-c2ccc3c(/C=C/c4ccccc4)n[nH]c3c2)cc1OCc1ccccc1 [Example 1(b), 3-(E-Styryl)-6-(3-benzyloxy-4-hydroxy-phenyl)-1H-indazole]",Ki,CDK2/Cyclin A; Table 1,4 µM
same,Ki,[1],2.2 nM
same,Ki,human CHK1 (FL-CHK1); read-out: CHK-1 Ki,1400 nM
same,Ki,CDK4/Cyclin D3 complex,1300 nM
same,IC50,[4]; read-out: HUVEC IC50,> 1000 nM
"CCc1cc(O)ccc1-c1ccc2c(-c3nc4ccccc4[nH]3)n[nH]c2c1 [Example 24(e), 3-1H-Benzoimidazol-2-yl-6-(2-ethyl-4-hydroxyphenyl)-1H-indazole]",Ki,CDK2/Cyclin A; Table 2,0.03 µM
same,Ki,CDK4/Cyclin D3 complex,4.4 nM
"Cc1cccc(C(=O)Nc2cccc(Oc3ccc4c(/C=C/c5ccccc5)n[nH]c4c3)c2)c1 [Example 5(b), 3-Methyl-N-[3-(3-styryl-1h-indazol-6-yloxy)-phenyl]-benzamide]",Ki,human FGF-R1,14 nM
"COc1cc(-c2ccc3c(-c4ccc5ccccc5c4)n[nH]c3c2)ccc1O [Example 2(a), 3-(Naphthalen-2-yl)-6-(3-methoxy-4-hydroxy-phenyl)-1H-indazole]",Ki,CDK2/Cyclin A; Table 1,0.61 µM
same,Ki,[1],40 nM
same,inhibition at 20 µM,"human CHK1 (FL-CHK1); read-out: CHK-1 % inhibition, @20 μM",61%
same,Ki,CDK4/Cyclin D3 complex,1600 nM
same,IC50,[4]; read-out: HUVEC IC50,> 1000 nM
"Clc1ccc(/C=C/c2n[nH]c3cc(-c4ccncc4)ccc23)cc1 [Example 29(c), 6-Pyrid-4-yl-3-E-[2-(4-chlorophenyl)ethenyl]-1H-indazole]",Ki,CDK2/Cyclin A; Table 3,2.2 µM
same,Ki,CDK4/Cyclin D3 complex,2000 nM
"COc1cc(O)ccc1-c1ccc2c(-c3nc4c(SCCO)cccc4[nH]3)n[nH]c2c1 [Example 25(f), 3-[4-(2-Hydroxyethylsulfanyl)-1H-benzoimidazol-2-yl]-6-(2-methoxy-4-hydroxyphenyl)-1H-indazole]",Ki,CDK2/Cyclin A; Table 2,0.39 µM
same,Ki,CDK4/Cyclin D3 complex,1000 nM
